Results from US9327225B2, “Air cleaning filter and method for manufacturing the same” (LG Electronics Inc., priority 2012, dated 2016).

Legend:
[1] = tested on: escherichia coli (E. coli); assay: Measurement of minimal inhibitory concentration (MIC), turbidity; format: cell-based; details: for minimal inhibitory concentration, E. coli: Table 1, 35° C., 14-16 hours; for E. coli MIC value: Table 2; for MIC value of E. coli (wt %): in Table 3
Text: (§1) 1. Measurement of Minimal Inhibitory Concentration (MIC)
(§2) Polyvinylpyrrolidone iodine (hereinafter, abbreviated as “PVPI”), phthalaldehyde (hereinafter, abbreviated as “PA”), potassium disulphite (hereinafter, abbreviated as “PD”) bronopol, norspermidine (hereinafter, abbreviated as “NS), and the ginseng extract were sequentially diluted, respectively, and prepared with various concentrations to prepare MIC measurement specimens. About 10^4-5 cfu/ml of escherichia coli (E. coli) and about 10^4˜5 cfu/ml of staphylococcus aureus (S. aureus) were added to the MIC measurement specimens, respectively. The specimens were cultured at 35° C. for 14-16 hours and then the turbidity was examined, respectively.
(§3) As a comparative example, specimens to which the E. coli and the S. aureus were added to distilled water, respectively, were cultured at the same time, and the minimal inhibitory concentration of the specimens was measured with reference to specimens subsequent to the culture and the turbidity of the comparative example subsequent to the culture.

[2] = tested on: staphylococcus aureus (S. aureus); assay: as above; format: cell-based; details: for minimal inhibitory concentration, S. aureus: Table 1, 35° C., 14-16 hours; for S. aureus MIC value: Table 2
Text: as §1, §2, §3

E. coli [3] = assay: Paper disc experiment (clear zone); format: cell-based, Escherichia coli; details: 24 hours, 35° C.
Protocol: (§4) 10^5 cfu/ml of E. coli and S. aureus were sub-cultured in a Mueller Hinton agar, respectively, and then smeared.
(§5) PVPI, ginseng extract, bronopol, PA, NS and PD were introduced to the paper disc, respectively, and left and dried for 5 to 10 minutes. The dried paper disc was put on a culture medium smeared with the E. coli and S. aureus with a sufficient interval, and cultured for 24 hours in a 35° C. incubator and then the size of clear zone was examined and the result is summarized in the following Table 2.

S. aureus = assay: Paper disc experiment (clear zone); format: cell-based, Staphylococcus aureus; details: 24 hours, 35° C.
Protocol: as §4, §5

E. coli [4] = assay: Shaking flask method, materials in maintenance medium; format: cell-based, Escherichia coli; details: 35° C., concentration of each material (wt %)
Protocol: 3. Experiment Using Shaking Flask Method
A maintenance medium produced with 1% of nutrient broth and 0.5% of NaCl and inoculated with about 10^5 cfu/ml of E. coli was prepared. Materials of PVPI, ginseng extract, bronopol, PA and NS were introduced to the medium, respectively, and reacted at 35° C., and the antibiotic effect was examined using a pour plate method after 6 hours and 24 hours had been passed.
The antibiotic effect in the Table 3 was calculated using the following equation.
Me: Cell number of maintenance medium to which each material is added
Mc: Cell number of maintenance medium to which each material is not added

| Compound | minimal inhibitory concentration, E. coli [1] | E. coli MIC value [1] [% weight %] | MIC value of E. coli (wt %) [1] [% wt %] | minimal inhibitory concentration, S. aureus [2] | S. aureus MIC value [2] [% weight %] | E. coli clear zone (mm) (E. coli [3]) | S. aureus clear zone (mm) (S. aureus) | Antibiotic effect after 6 hours (E. coli [4]) [%] | Antibiotic effect after 24 hours (E. coli [4]) [%] |
| --- | --- | --- | --- | --- | --- | --- | --- | --- | --- |
| O=Cc1ccccc1C=O [PA, phthalaldehyde] | 0.156% weight % | < 0.0009 | < 0.0009 | 0.156% weight % | < 0.0009 | 10 | 11 | 99.99 | 100 |
| Polyvinylpyrrolidone iodine [PVPI, reference compound] | 1.875% weight % | 1.875 | 1.875 | 1.875% weight % | 1.875 | 12 | 30 | 99.99 | 100 |
| O=S([O-])OS(=O)[O-].[K+].[K+] [PD, potassium disulphite] | 0.156% weight % | 0.156 |  | 0.078% weight % | 0.078 | 12 | 32 |  |  |
| NCCCNCCCN [NS, norspermidine] | 0.312% weight % | 0.312 | 0.312 | 0.078% weight % | 0.078 | 14 | 23 | 99.99 | 100 |
| O=[N+]([O-])C(Br)(CO)CO [Bronopol, bronopol, reference compound] | Less than 0.0009% weight % | 0.156 | 0.156 | Less than 0.0009% weight % | 0.156 | 10 | 10 | 99.99 | 100 |
